Results on one molecule are retold here after patent EP2118065B1, “Substituted 1H-benz[de]isoquinoline-1,3-diones” (priority 2007, dated 2008).

Broadly, the IC50 is the midpoint of a concentration-inhibition curve. The inhibition is the drop in the measured response relative to a control, in per cent.

The test system of assay [1] is MOLT-4 cells. Put plainly: Light and transmission electron microscopy of apoptosis. Type of assay: cell-based, Human. The method, then: Cell culture and treatment: Human T lymphoblast; acute lymphoblastic leukemia line MOLT-4 was procured from NCCS, Pune, India. The cells were cultured in RPMI-1640 medium supplemented with 10% FCS, 100 units penicillin and 100 µg streptomycin per ml. Cells were grown in CO2 incubator (SHEL-LAB, USA) at 37° C, 90% humidity and 5% CO2 gas environment and were treated during sub-confluent stage with Compound 3f dissolved in DMSO at the concentration of 1, 5 and 10µM while control cells received only the vehicle (DMSO < 0.5%).
Light and Transmission Electron Microscopy: MOLT-4 control, Compound 3f treated cells at different time intervals were washed in phosphate buffered saline, centrifuged at 1500 rpm for ten minutes and the pellets were divided into 1mm^3 pieces and fixed immediately in 2.5% glutaraldehyde in 0.1M phosphate buffer (pH 7.2) for 2 hr at 4°C, post-fixed with 1% OsO4 in the same buffer for 2 hr, dehydrated with acetone, cleared in propylene oxide and embedded in Epon-812^6 [Hayat, M. A. (1981) Principles and Techniques of Electron Microscopy. Biological Applications Vol. 1. Edward Arnold Publishers, London, U.K.] Semithin (1µm) sections were cut, stained with toluidine blue and studied under Olympus Research Microscope (VANOX). The photography was done using Olympus Digital Camera (C4000).
Ultrathin sections of silver colour (60-90 nm) were cut on a LKB ultramicrotome (Ultrotome-IV, mounted on copper grids and stained with uranyl acetate and lead citrate. The sections were viewed and photographed in a JEOL-100CXII electron microscope at 60 kV.
Detection of apoptosis in tissue sections. Cell Tissue Res. 301: 19-31] at different time intervals to study the mechanism of cell death. […] Compound 3f treated MOLT-4 cells, the condensation of the nuclear material, with a marked accumulation of densely stained chromatin was seen. In majority of the treated cells the chromatin was seen typically at the edge of the nucleus. This was accompanied by cell shrinkage and cytoplasmic vacuoles. The disintegration of the nucleus into smaller fragments was also seen (Fig. 7B). […]

Assay [2] relates to MOLT-4 cells. Put plainly: Flow cytometric DNA cell cycle analysis (sub-G1 fraction). As to conditions: 24 hr. Type of assay: cell-based, Human. As for the experimental part:
Effect of DNA content by cell cycle phase distribution was assessed using MOLT-4 cells. […] The incubation period was 3 hrs in case of camptothecin and 24 hrs. in rest of the treatments. The cells were then washed twice with ice-cold PBS, harvested, fixed with ice-cold PBS in 70% ethanol, and stored at -20 °C for 30 min. After fixation, the cells were incubated with RNase A (0.1 mg/ml) at 37°C for 30 min, stained with propidium iodide (50 µg/ml) for 30 min on ice in dark, and then measured for DNA content using BD-LSR Flow cytometer (Becton Dickinson, USA) equipped with electronic doublet, discrimination capability using blue (488nm) excitation from argon laser. Data were collected in list mode on 10,000 events for FL2-A vs. FL2-W and analyzed using Mod Fit 2.0 software (Fig 4). […] The sub-G1 fractions for control and camptothecin were 0.64 (Fig. 4A) and 11.92 % (Fig. 4B).
(In general: Flow cytometry measures light scatter and fluorescence of single cells or particles in a stream.)

Assay [3] concerns Ehrlich ascites carcinoma (EAC). Put plainly: In vivo anticancer activity: increase in median survival time. Details: species or system Swiss albino male mice. To be noted: 60 mg/kg i.p., 7 injns., days 1-7.
Assay [4] relates to U-937 lymphoma. Put plainly: MTT in vitro cytotoxicity. To be noted: Homo sapiens, U-937, 96 h, read-out: IC50 value Lymphoma U-937.
In assay [5] the test system is S-180. Kind of assay: In vivo tumor growth inhibition study. More on the design: species or system mice. An excerpt:
Compound 3f was selected for tumor growth inhibition study. 18 mice each were taken for treated and control groups and inoculated with 1 x 10^6 S-180 cells. After sacrificing mice from the respective groups sequentially on days 9, 14 and 19 following drug treatment on day 1-7 at doses indicated, the ascites fluid from peritoneal cavities of animals were quantitatively transferred and the peritoneal cavities were washed with measured volume of physiological saline. The total number of tumor cells were counted and ascites fluid volume were measured. Averages ( x ± S.E.M.) were made of these two parameters and the percentage inhibitions [(1 - T/C) ×100] were calculated for each dose.

In assay [6] the test system is S-180 cells. Put plainly: 3H-thymidine and 3H-uridine incorporation in vitro (DNA and RNA synthesis).
Assay [7] deals with MOLT-4 cells. Kind of assay: Annexin V-FITC/PI flow cytometric analysis of apoptosis. Type of assay: cell-based, Human. To be noted: 6 hrs. The method, then:
Events of apoptosis were analyzed using Annexin V-FITC Apoptosis Detection Kit (A 2214 Sigma Aldrich, USA). Human leukemia Cells (MOLT-4, 1x10^6 cells/ml) in 6-well plate were treated with Compound 3f (3 and 5µg/ml), camptothecin (5µM) and incubated for 6 hrs. After incubation, the cells were centrifuged, rinsed with PBS twice and re-suspended in binding buffer (10 mM HEPES/NaOH, pH 7.5 containing 0.14M NaCl and 25 mM CaCl2). An aliquot (500 µl) of suspension was stained with of Annexin V-FITC (5 µl) and Propidium Iodide (10 µl). The cells were stored for 10 minutes at room temperature in the dark and then analyzed by BD-LSR flow cytometer (Becton Dickinson, USA) at two wavelengths to measure fluorescence for of Annexin V & PI binding at 515 and 639 nm.

As to `O=C1c2cccc3c([N+](=O)[O-])ccc(c23)C(=O)N1CCCCl` [Compound 3f, 6-Nitro-2-[3-(Chloropropyl)]-1H-benz[de]isoquinoline-1,3-dione], the “apoptotic cells by light microscopy” value in assay [1] (1µM) is “no apoptotic cells were observed”; in assay [1] (5µM, 24 - 48 hr), “only a-few apoptotic cells were observed”; in assay [1] (10µM, 36 hrs), “seen in majority of cells”. Further, the entries for the “sub-G1 fraction (apoptotic)” value in assay [2] (1.5 µg/ml) and in assay [2] (5 µg/ml) were 4.52% and 5.86%, respectively. Moreover, the “MST” value in assay [3] was found to be 34.0 days. For the same molecule, the IC50 in assay [4] worked out at 1950 nM. The “inhibition in S-180 tumor growth” value in assay [5] (19th day, after drug treatment on day 1-7) is “about 20%”; in assay [5] (day 9, after drug treatment on day 1-7), 84%. Besides, the inhibition at 8 µM in assay [6] (Mus musculus, S-180, read-out: DNA synthesis inhibition (3H-thymidine uptake)) came out at 90%. Also, the “RNA synthesis inhibition (3H-uridine uptake)” value in assay [6] (S-180 cells, 8 µM, 1 hr incubation, with respect to control) came out at 80%. In addition, the results for the “late apoptotic cells (Annexin V^+/PI^+)” value in assay [7] (3 µg/ml) and in assay [7] (5 µg/ml) were 1.05% and 4.82%, respectively. The figures for the total apoptotic cells in assay [7] (3 µg/ml) and in assay [7] (5 µg/ml) were 7.43% and 18.44%, respectively.
